From US7018989B2, “Chemical compounds” (University College Cardiff Consultants, LTD, priority 1995, dated 2006)
Like-named read-outs stand apart in the source and are kept apart here.

Key:
CEM cells = experiment: Toxicity to CEM cells; assay type: cell-based, human
Procedure: (§1) Cells were infected with HIV-1 as previously described [Balzarini et al. AIDS (1991), 5, 21–28]. Briefly, 5×10^5 cells per milliliter were infected with HIV-1 or HIV-2 at 100 CCID50 (50% cell culture infective dose) per milliliter of cell suspension. Then 100 μL of the infected cell suspension was transferred to microtiter plate wells and mixed with 100 μL of the appropriate dilutions of the test compounds. After 4 days giant cell formation was recorded microscopically in the HIV-infected cell cultures [CEM], and after 5 days the number of viable cells was determined by trypan blue staining of the HIV-infected cell cultures [MT4].
(§2) The data columns are, in order: • HIV1 MT4: EC50 in μM for inhibition of HIV-1 in MT4 cells. • HIV2 MT4: EC50 in μM for inhibition of HIV-2 in MT4 cells. • CC50 MT4: CC50 in μM for toxicity to MT-4 cells. • HIV1 CEM: EC50 in μM for inhibition of HIV-1 in CEM cells. • HIV2 CEM: EC50 in μM for inhibition of HIV-2 in CEM cells. • HIV2 CEM-TK-: EC50 in μM for inhibition of HIV-2 in CEM/TK^− cells. • CC50 CEM: CC50 in μM for toxicity to CEM cells. • EC50 MSV: EC50 in μM for inhibition of MSV • MCC MSV: Minimum cytotoxic concentration in MSV assay

MSV = experiment: Inhibition of MSV (in vitro); assay type: cell-based, Moloney Sarcoma Virus
Source text: as §2

HIV-2 [1] = experiment: Inhibition of HIV-2 in CEM/TK- cells; assay type: cell-based
Procedure: as §1, §2

HIV-1 = experiment: microbe, parasite or virus in culture; details: read-out: HIV1 CEM: EC50 for inhibition of HIV-1 in CEM cells
Procedure: as §1, §2

[2] = Minimum cytotoxic concentration in MSV assay; assay type: cell-based
Source text: as §2, with “CEM/TK^-” for “CEM/TK^−”, “[…]:” for “MSV • MCC MSV:”

HIV-2 [3] = experiment: Inhibition of HIV-2 in CEM cells (giant cell formation); assay type: cell-based; details: read-out: HIV2 CEM: EC50 for inhibition of HIV-2 in CEM cells
Procedure: as §1, §2

[4] = Table 6, mean of two or more repeat experiments
[5] = Table 6, mean of two or more repeat experiments, read-out: HIV2 CEM-TK-: EC50 for inhibition of HIV-2 in CEM/TK^− cells

| SMILES | CC50 (CEM cells; [4]) [µM] | EC50 (MSV; Table 6) [µM] | EC50 (HIV-2 [1]; [5]) [µM] | EC50 (HIV-1; [4]) [µM] | MCC MSV: Minimum cytotoxic concentration in MSV assay ([2]; Table 6) | EC50 (HIV-2 [3]; [4]) [µM] | CC50 (CEM cells; CEM cells) [µM] | EC50 (MSV; MSV) [µM] | EC50 (HIV-2 [1]; CEM/TK- cells, HIV-2, read-out: HIV2 CEM-TK-: EC50 for inhibition of HIV-2 in CEM/TK- cells) [µM] | EC50 (HIV-1; CEM cells, HIV-1) [µM] | MCC MSV: Minimum cytotoxic concentration in MSV assay ([2]; MSV assay) | EC50 (HIV-2 [3]; CEM cells, HIV-2) [µM] |
| --- | --- | --- | --- | --- | --- | --- | --- | --- | --- | --- | --- | --- |
| CCOC(=O)COP(=O)(OCC1C=CC(n2cc(C)c(=O)[nH]c2=O)O1)Oc1ccccc1 (stereo not drawn) [Compound 981] | ≥ 250 | > 100 | 150 | 12.5 | >100 | 12.5 | – | – | – | – | – | – |
| CSCC[C@H](NP(=O)(O)OC[C@@H]1C=C[C@H](n2cc(C)c(=O)[nH]c2=O)O1)C(=O)O [Compound 1156, 2′,3′-dideoxy-2′,3′-didehydrothymidine 5′-(methioninyl phosphate)] | > 250 | 16.2 | 50 | 1.27 | >100 | 0.7 | – | – | – | – | – | – |
| CCOC(=O)CCNP(=O)(OCC1C=CC(n2cc(C)c(=O)[nH]c2=O)O1)Oc1ccccc1 (stereo not drawn) [Compound 950] | > 250 | > 100 | > 250 | 250 | >100 | ≥ 250 | – | – | – | – | – | – |
| Cc1cn(C2C=CC(COP(=O)(O)NC(CC(=O)O)C(=O)O)O2)c(=O)[nH]c1=O (stereo not drawn) [Compound 1079] | ≥ 250 | 9.3 | 70 | 1.6 | >100 | 2.5 | – | – | – | – | – | – |
| Cc1cn(C2C=CC(COP(=O)(O)O)O2)c(=O)[nH]c1=O (stereo not drawn) [Compound 1131] | ≥ 250 | 6.7 | 50 | 0.4 | >100 | 0.6 | – | – | – | – | – | – |
| COC(=O)C(C)NP(=O)(O)OCC1C=CC(n2cc(C)c(=O)[nH]c2=O)O1 (stereo not drawn) [Compound 1129] | > 250 | 47.4 | 50 | 2 | >100 | 4.5 | – | – | – | – | – | – |
| COC(=O)CCC(NP(=O)(OCC1C=CC(n2cc(C)c(=O)[nH]c2=O)O1)Oc1ccccc1)C(=O)OC (stereo not drawn) [Compound 1081] | ≥ 250 | 88.8 | 16 | 8 | >100 | 5.33 | – | – | – | – | – | – |
| COP(=O)(NC(C)C(=O)OCc1ccccc1)OCC1C=CC(n2cc(C)c(=O)[nH]c2=O)O1 (stereo not drawn) [Compound 1135] | > 250 | > 100 | 17.5 | 10 | >100 | 15 | – | – | – | – | – | – |
| COC(=O)COP(=O)(OCC1C=CC(n2cc(C)c(=O)[nH]c2=O)O1)Oc1ccccc1 (stereo not drawn) [Compound 980] | > 250 | > 100 | > 250 | 27.5 | >100 | 50 | – | – | – | – | – | – |
| COC(=O)[C@@H](C)NP(=O)(OCC1C=CC(n2cc(C)c(=O)[nH]c2=O)O1)Oc1ccccc1 (stereo partly drawn) [Compound 932] | > 250 | ≥ 100 | 2.5 | 3 | >100 | 2 | – | – | – | – | – | – |
| COC(=O)C(C)NP(=O)(OC[C@@H]1CC[C@H](n2cnc3c(N)ncnc32)O1)Oc1ccccc1 (stereo partly drawn) [Compound 1093, 2′,3′-dideoxy Adenosine 5′-(phenylmethoxyalaninyl) phosphoramidate] | – | – | – | – | – | – | 2.57 | 1.95 | 0.055 | 0.016 | >20 | 0.035 |
| Cc1cn(C2C=CC(COP(=O)(O)N[C@H](C)C(=O)O)O2)c(=O)[nH]c1=O (stereo partly drawn) [Compound 1095] | > 250 | 0.42 | 10 | 1.3 | >100 | 1.6 | – | – | – | – | – | – |
| Cc1cn(C2C=CC(COP(=O)(Oc3ccccc3)N3CCCC3C(=O)OCc3ccccc3)O2)c(=O)[nH]c1=O (stereo not drawn) [Compound 933] | 92 | > 100 | > 50 | 35 | >100 | 12.5 | – | – | – | – | – | – |
